In PubChem BioAssay (NCI):
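Test compounds were applied to cells in 96-well plates for 48 hours at 5 doses. The concentration for 50% growth inhibition is given as GI50. Definition used: TGI = concentration required for complete inhibition of growth.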

How the values were obtained:
Assay in all cases: inhibition of tumour cell growth, NCI panel, 48 h
SW-620 colon = test system: SW-620 colon
SF-268 CNS = test system: SF-268 CNS
IGROV1 ovarian = test system: IGROV1 ovarian
U251 CNS = test system: U251 CNS
OVCAR-8 ovarian = test system: OVCAR-8 ovarian
CCRF-CEM leukemia = test system: CCRF-CEM leukemia
SN12C renal = test system: SN12C renal
EKVX NSCLC = test system: EKVX NSCLC
M14 melanoma = test system: M14 melanoma
MALME-3M melanoma = test system: MALME-3M melanoma

SMILES	GI50 (SW-620 colon)	TGI (SW-620 colon)	GI50 (SF-268 CNS)	TGI (SF-268 CNS)	GI50 (IGROV1 ovarian)	TGI (IGROV1 ovarian)	GI50 (U251 CNS)	TGI (U251 CNS)	GI50 (OVCAR-8 ovarian)	TGI (OVCAR-8 ovarian)	GI50 (CCRF-CEM leukemia)	TGI (CCRF-CEM leukemia)	GI50 (SN12C renal)	TGI (SN12C renal)	GI50 (EKVX NSCLC)	TGI (EKVX NSCLC)	GI50 (M14 melanoma)	TGI (M14 melanoma)	GI50 (MALME-3M melanoma)	TGI (MALME-3M melanoma)
CC(C)(C)c1nc(-c2cccc(NS(=O)(=O)c3c(F)cccc3F)c2F)c(-c2ccnc(N)n2)s1	23900 nM	> 100 µM	51000 nM	> 100 µM	56100 nM	> 100 µM	45500 nM	> 100 µM	49100 nM	> 100 µM	21700 nM	> 86.2 µM	17700 nM	> 100 µM						
CCc1nc2cc(/C=C/C(=O)NO)ccc2c(=O)n1CCc1ccc(OC)cc1	1930 nM	13 µM	2440 nM	13.1 µM			1990 nM	4.87 µM	2270 nM	15.5 µM	3170 nM	> 100 µM			3910 nM	43.9 µM	2880 nM	10.4 µM	1530 nM	8.28 µM
CCOC(=O)C1=C(C(=O)OCC)C2(c3ccccc3)N(O1)c1ccccc1C2(C)C (stereo not drawn)		> 100 µM		> 100 µM		> 100 µM		> 100 µM		> 100 µM		> 100 µM				> 100 µM		> 100 µM		> 100 µM
O=C(NC(=O)c1cn(CCN2CCN(C(=O)NCCCCCCNC(=O)N3CCN(CCn4cc(C(=O)NC(=O)OCc5ccccc5)c(=O)[nH]c4=O)CC3)CC2)c(=O)[nH]c1=O)OCc1ccccc1		> 100 µM				> 100 µM		> 100 µM		> 100 µM		> 100 µM		> 100 µM		> 100 µM		> 100 µM		> 100 µM
Nc1ccc(-c2ccc3ncc4ccc(=O)n(-c5cccc(C(F)(F)F)c5)c4c3c2)cn1	< 12.5 nM	13.3 µM	< 10.4 nM	4.61 µM	< 10 nM	0.314 µM	< 10 nM	0.948 µM	< 10 nM	> 33.7 µM	< 10 nM	1.93 µM	< 13.1 nM	> 52.2 µM			< 10 nM	0.266 µM	< 10 nM	0.0315 µM
C/C(O)=C(\N=O)C(=O)NCc1ccccc1		31.4 µM		> 100 µM		> 100 µM		> 100 µM		> 100 µM		> 100 µM		> 100 µM		> 100 µM				> 100 µM
O=C(Oc1ccccc1)C(Br)C(Br)c1ccccc1 (stereo not drawn)	1740 nM	3.29 µM	4150 nM	15.2 µM	2000 nM	3.96 µM	4130 nM	15.8 µM	6110 nM	21.8 µM	1390 nM	6.68 µM	1880 nM	4.5 µM	11900 nM	24.8 µM	2680 nM	7.51 µM		
CC(C)C(=S)N(C)O		> 61.5 µM		> 100 µM		> 100 µM		> 100 µM		> 100 µM				> 100 µM		> 100 µM		> 100 µM		> 100 µM
COc1cc(C2c3cc4c(cc3[C@@H](N(C)c3ccc(N(C)C)cc3)C3COC(=O)C23)OCO4)cc(OC)c1O (stereo partly drawn)		21.8 µM		6.85 µM		31.5 µM		1.45 µM		> 59.8 µM		35.5 µM		18.1 µM		44.2 µM		14.5 µM		
Cc1cc2c(cc1CO)N1Cc3cc(C)c(CO)cc3N(C2)C1		> 100 µM		> 100 µM		> 100 µM		> 100 µM		> 100 µM		> 100 µM		> 100 µM		> 100 µM		> 100 µM		
COC(=O)CC(C(C(C)=O)C(=O)OCc1ccccc1)N1C(=O)OC(c2ccccc2)C1c1ccccc1 (stereo not drawn)		> 100 µM		> 100 µM		> 100 µM		> 100 µM		> 100 µM		> 100 µM		> 100 µM		> 100 µM				> 100 µM
O=C1Nc2ccccc2/C1=C/c1cn(CC(O)Cn2cc(/C=C3\C(=O)Nc4ccccc43)c3ccccc32)c2ccccc12 (stereo not drawn)	1340 nM	3.48 µM	1750 nM	3.92 µM	477 nM	1.9 µM	1520 nM	2.92 µM			2840 nM	13.4 µM	1520 nM	3.16 µM	1810 nM	3.78 µM	1320 nM	2.83 µM	1510 nM	3.26 µM
CCC(=O)C(C(=O)CC)c1c(OC(=O)c2ccccc2)ccc(O)c1C(=O)OC		> 100 µM		> 100 µM		> 100 µM		> 100 µM		> 100 µM		> 100 µM		> 100 µM		> 100 µM		> 100 µM		
COc1ccc(-c2n[nH]nc2-c2cc(OC)c3c(c2)OCO3)cc1	< 11.7 nM	> 100 µM	87 nM	> 62.3 µM	28.9 nM	> 100 µM	35.9 nM	15.6 µM	35 nM	> 52.9 µM	26.4 nM	14.2 µM	71 nM	55.6 µM			14 nM	10.5 µM		
CCCCN1C(=O)/C(=c2\sc3n(c2=O)C2C(NN=3)N(CC)C(=O)N2CC)c2ccccc21 (stereo not drawn)	442 nM	> 100 µM	959 nM	4.71 µM	764 nM	3.6 µM	773 nM	3.39 µM			1810 nM	> 100 µM			1380 nM	> 100 µM	479 nM	2.31 µM	639 nM	3.27 µM
CCN(CC)c1ccc2nc3ccc(N=Nc4ccc(O)cc4)cc3[n+](-c3ccccc3)c2c1	2240 nM	6.38 µM	5000 nM	> 100 µM			7810 nM	> 100 µM	7420 nM	> 100 µM			10700 nM	36.7 µM	3590 nM	64.8 µM	2290 nM	4.79 µM		
c1cc[c]([Sn]([O]c2cccc3cccnc23)([O]c2cccc3cccnc23)[c]2ccccc2)cc1			410 nM	1.5 µM	1550 nM	3.06 µM	938 nM	2.6 µM	294 nM	0.859 µM	183 nM	0.44 µM	481 nM	1.64 µM	1430 nM	3.07 µM	198 nM	0.4 µM		
